Experimental data: US4016158A, “Cephalosporin derivatives” (Roussel-UCLAF, priority 1971, dated 1977)
≈ marks a conversion by molar mass, not a printed value. Like-named read-outs stand apart in the source and are kept apart here.

Key:
Assay in all cases: MIC (Table II)
Type in all cases: cell-based
[1] = system: Diplococcus pneumoniae 735; conditions: Streptococcus pneumoniae, read-out: minimum inhibition concentration
Procedure: (§1) The antibiotic activity was determined by the diffusion method in a gelose medium at a pH of 7. The following Table expresses the minimum concentration of inhibition in mcg/ml (CMl) for the products against different microbial strains.
(§2) Using the same procedure as in Table I, the minimum inhibition concentration in mcg/ml was determined against different microbial strains with L(-) cis 7-[D(-)-α-aminophenylacetamido]-3-isopropyl-3-cepheme-4-carboxylic acid (product A) of Example 9.

Escherichia coli 1718 = conditions: read-out: minimum inhibition concentration
Procedure: as §1, §2

Escherichia coli 3019 = conditions: read-out: minimum inhibition concentration
Procedure: as §1, §2

Escherichia coli 5003 = conditions: read-out: minimum inhibition concentration
Procedure: as §1, §2

Escherichia coli 51 = conditions: read-out: minimum inhibition concentration
Procedure: as §1, §2

Escherichia coli 5524 = conditions: read-out: minimum inhibition concentration
Procedure: as §1, §2

Escherichia coli 8497 = conditions: read-out: minimum inhibition concentration
Procedure: as §1, §2

Escherichia coli 9927 = conditions: read-out: minimum inhibition concentration
Procedure: as §1, §2

Escherichia coli 9957 = conditions: read-out: minimum inhibition concentration
Procedure: as §1, §2

Proteus mirabilis 1668 = conditions: read-out: minimum inhibition concentration
Procedure: as §1, §2

Proteus mirabilis 3113 = conditions: read-out: minimum inhibition concentration
Procedure: as §1, §2

Proteus mirabilis 6194 = conditions: read-out: minimum inhibition concentration
Procedure: as §1, §2

Proteus mirabilis 8029 = conditions: read-out: minimum inhibition concentration
Procedure: as §1, §2

Proteus mirabilis 8065 = conditions: read-out: minimum inhibition concentration
Procedure: as §1, §2

[2] = system: Salmonella brandebourg 550; conditions: read-out: minimum inhibition concentration
Procedure: as §1, §2

Shigella flexneri = conditions: read-out: minimum inhibition concentration
Procedure: as §1, §2

Shigella sonnei = conditions: read-out: minimum inhibition concentration
Procedure: as §1, §2

[3] = system: Staphylococcus aureus 017; conditions: read-out: minimum inhibition concentration
Procedure: as §1, §2

[4] = system: Staphylococcus aureus 1098; conditions: read-out: minimum inhibition concentration
Procedure: as §1, §2

[5] = system: Staphylococcus aureus 397; conditions: read-out: minimum inhibition concentration
Procedure: as §1, §2

[6] = system: Staphylococcus aureus 4546; conditions: Staphylococcus aureus, 4546, read-out: minimum inhibition concentration
Procedure: as §1, §2

[7] = system: Staphylococcus aureus 54146; conditions: read-out: minimum inhibition concentration
Procedure: as §1, §2

[8] = system: Staphylococcus aureus 5880; conditions: read-out: minimum inhibition concentration
Procedure: as §1, §2

[9] = system: Staphylococcus aureus 8514; conditions: read-out: minimum inhibition concentration
Procedure: as §1, §2

[10] = system: Staphylococcus aureus 889; conditions: Staphylococcus aureus, 889, read-out: minimum inhibition concentration
Procedure: as §1, §2

[11] = system: Staphylococcus aureus 9482; conditions: Staphylococcus aureus, 9482, read-out: minimum inhibition concentration
Procedure: as §1, §2

[12] = system: Staphylococcus aureus 9561; conditions: read-out: minimum inhibition concentration
Procedure: as §1, §2

[13] = system: Staphylococcus aureus 9729; conditions: Staphylococcus aureus, 9729, read-out: minimum inhibition concentration
Procedure: as §1, §2

[14] = system: Staphylococcus aureus 980; conditions: 24h, read-out: minimum inhibition concentration
Procedure: as §1, §2

[15] = system: Staphylococcus aureus A8P; conditions: read-out: minimum inhibition concentration
Procedure: as §1, §2

[16] = system: Staphylococcus aureus Frottis nasal; conditions: read-out: minimum inhibition concentration
Procedure: as §1, §2

[17] = system: Streptococcus hemolyticus 905; conditions: Streptococcus pyogenes, read-out: minimum inhibition concentration
Procedure: as §1, §2

## CC(C)C1=C(C(=O)O)N2C(=O)[C@@H](NC(=O)[C@H](N)c3ccccc3)[C@H]2SC1 [Example 9, L (+) cis 7-[D (-)-α-aminophenylacetamido]-3-isopropyl-3-cepheme-4-carboxylic acid]
[1]; 24h
  MIC: 0.4 µg/mL (≈ 1.07 µM)
[1]; 48h
  MIC: 1 µg/mL (≈ 2.66 µM)
[1]; 72h
  MIC: 1 µg/mL (≈ 2.66 µM)
Escherichia coli 1718; 24h
  MIC: 40 µg/mL (≈ 107 µM)
Escherichia coli 1718; 48h
  MIC: 40 µg/mL (≈ 107 µM)
Escherichia coli 1718; 72h
  MIC: 60 µg/mL (≈ 160 µM)
Escherichia coli 3019; 24h
  MIC: 30 µg/mL (≈ 79.9 µM)
Escherichia coli 3019; 48h
  MIC: 40 µg/mL (≈ 107 µM)
Escherichia coli 3019; 72h
  MIC: 40 µg/mL (≈ 107 µM)
Escherichia coli 5003; 24h
  MIC: 40 µg/mL (≈ 107 µM)
Escherichia coli 5003; 48h
  MIC: 40 µg/mL (≈ 107 µM)
Escherichia coli 5003; 72h
  MIC: 40 µg/mL (≈ 107 µM)
Escherichia coli 51; 24h
  MIC: 100 µg/mL (≈ 266 µM)
Escherichia coli 51; 48h
  MIC: > 100 µg/mL
Escherichia coli 5524; 24h
  MIC: 60 µg/mL (≈ 160 µM)
Escherichia coli 5524; 48h
  MIC: 60 µg/mL (≈ 160 µM)
Escherichia coli 5524; 72h
  MIC: 60 µg/mL (≈ 160 µM)
Escherichia coli 8497; 24h
  MIC: 100 µg/mL (≈ 266 µM)
Escherichia coli 8497; 48h
  MIC: 100 µg/mL (≈ 266 µM)
Escherichia coli 8497; 72h
  MIC: 100 µg/mL (≈ 266 µM)
Escherichia coli 9927; 24h
  MIC: 100 µg/mL (≈ 266 µM)
Escherichia coli 9927; 48h
  MIC: > 100 µg/mL
Escherichia coli 9957; 24h
  MIC: 40 µg/mL (≈ 107 µM)
Escherichia coli 9957; 48h
  MIC: 100 µg/mL (≈ 266 µM)
Escherichia coli 9957; 72h
  MIC: 100 µg/mL (≈ 266 µM)
Proteus mirabilis 1668; 24h
  MIC: 100 µg/mL (≈ 266 µM)
Proteus mirabilis 1668; 48h
  MIC: > 100 µg/mL
Proteus mirabilis 3113; 24h
  MIC: 100 µg/mL (≈ 266 µM)
Proteus mirabilis 3113; 48h
  MIC: > 100 µg/mL
Proteus mirabilis 6194; 24h
  MIC: 60 µg/mL (≈ 160 µM)
Proteus mirabilis 6194; 48h
  MIC: 80 µg/mL (≈ 213 µM)
Proteus mirabilis 6194; 72h
  MIC: > 100 µg/mL
Proteus mirabilis 8029; 24h
  MIC: 60 µg/mL (≈ 160 µM)
Proteus mirabilis 8029; 48h
  MIC: > 100 µg/mL
Proteus mirabilis 8065; 24h
  MIC: 60 µg/mL (≈ 160 µM)
Proteus mirabilis 8065; 48h
  MIC: > 100 µg/mL
[2]; 24h
  MIC: 30 µg/mL (≈ 79.9 µM)
[2]; 48h
  MIC: 30 µg/mL (≈ 79.9 µM)
[2]; 72h
  MIC: 40 µg/mL (≈ 107 µM)
Shigella flexneri; 24h
  MIC: 20 µg/mL (≈ 53.3 µM)
Shigella flexneri; 48h
  MIC: 40 µg/mL (≈ 107 µM)
Shigella flexneri; 72h
  MIC: 40 µg/mL (≈ 107 µM)
Shigella sonnei; 24h
  MIC: 30 µg/mL (≈ 79.9 µM)
Shigella sonnei; 48h
  MIC: 30 µg/mL (≈ 79.9 µM)
Shigella sonnei; 72h
  MIC: 30 µg/mL (≈ 79.9 µM)
[3]; 24h
  MIC: 2 µg/mL (≈ 5.33 µM)
[3]; 48h
  MIC: 5 µg/mL (≈ 13.3 µM)
[3]; 72h
  MIC: 15 µg/mL (≈ 40 µM)
[4]; 24h
  MIC: 0.4 µg/mL (≈ 1.07 µM)
[4]; 48h
  MIC: 1 µg/mL (≈ 2.66 µM)
[4]; 72h
  MIC: 3 µg/mL (≈ 7.99 µM)
[5]; 24h
  MIC: 2 µg/mL (≈ 5.33 µM)
[5]; 48h
  MIC: 5 µg/mL (≈ 13.3 µM)
[5]; 72h
  MIC: 10 µg/mL (≈ 26.6 µM)
[6]; 24h
  MIC: 0.6 µg/mL (≈ 1.6 µM)
[6]; 48h
  MIC: 2 µg/mL (≈ 5.33 µM)
[6]; 72h
  MIC: 3 µg/mL (≈ 7.99 µM)
[7]; 24h
  MIC: 1 µg/mL (≈ 2.66 µM)
[7]; 48h
  MIC: 1 µg/mL (≈ 2.66 µM)
[7]; 72h
  MIC: 2 µg/mL (≈ 5.33 µM)
[8]; 24h
  MIC: 2 µg/mL (≈ 5.33 µM)
[8]; 48h
  MIC: 3 µg/mL (≈ 7.99 µM)
[8]; 72h
  MIC: 10 µg/mL (≈ 26.6 µM)
[9]; 24h
  MIC: 1 µg/mL (≈ 2.66 µM)
[9]; 48h
  MIC: 2 µg/mL (≈ 5.33 µM)
[9]; 72h
  MIC: 2 µg/mL (≈ 5.33 µM)
[10]; 24h
  MIC: 5 µg/mL (≈ 13.3 µM)
[10]; 48h
  MIC: 10 µg/mL (≈ 26.6 µM)
[10]; 72h
  MIC: 20 µg/mL (≈ 53.3 µM)
[11]; 24h
  MIC: 1 µg/mL (≈ 2.66 µM)
[11]; 48h
  MIC: 2 µg/mL (≈ 5.33 µM)
[11]; 72h
  MIC: 2 µg/mL (≈ 5.33 µM)
[12]; 24h
  MIC: 1 µg/mL (≈ 2.66 µM)
[12]; 48h
  MIC: 3 µg/mL (≈ 7.99 µM)
[12]; 72h
  MIC: 10 µg/mL (≈ 26.6 µM)
[13]; 24h
  MIC: 2 µg/mL (≈ 5.33 µM)
[13]; 48h
  MIC: 2 µg/mL (≈ 5.33 µM)
[13]; 72h
  MIC: 5 µg/mL (≈ 13.3 µM)
[14]
  MIC: > 40 µg/mL
[15]; 24h
  MIC: 1 µg/mL (≈ 2.66 µM)
[15]; 48h
  MIC: 3 µg/mL (≈ 7.99 µM)
[15]; 72h
  MIC: 10 µg/mL (≈ 26.6 µM)
[16]; 24h
  MIC: 2 µg/mL (≈ 5.33 µM)
[16]; 48h
  MIC: 3 µg/mL (≈ 7.99 µM)
[16]; 72h
  MIC: 10 µg/mL (≈ 26.6 µM)
[17]; 24h
  MIC: 2 µg/mL (≈ 5.33 µM)
[17]; 48h
  MIC: 2 µg/mL (≈ 5.33 µM)
[17]; 72h
  MIC: 2 µg/mL (≈ 5.33 µM)
